One test deals with Listeria monocytogenes. Nature of the test: MIC determination, broth microdilution. Format: cell-based. The text has this: (§1) Standard laboratory strains of Bacillus subtilis subs. subtilis Cohn 1872, stains BR151, and 168, Staphylococcus aureus subsp. aureus Rosenbach 1884 strains JCM 2151 and entry MC#144 (from the Microorganisms Collection of the Moscow State University), Listeria monocytogenes Pirie 1940, Mycobacterium smegmatis Lehmann and Neumann 1899 (MC#377), and Escherichia coli Castellani and Chalmers 1919, strain JW5503 (with the deletion of tolC gene), which are resistant to the chloramphenicol strains, J53rif, C600rif/pIB55-1, C600rif/pIP162-1, and C600recA naI, were used.
(§2) S. aureus was grown in Bacto Tryptic Soy Broth, L. monocytogenes in Brain Heart Infusion Broth, and E. coli in LB. Bacterial cells were grown at 30 °C or 37 °C in the appropriate medium at a 140 rpm shaking frequency.
(§3) The MICs for CAM-Cn-TPP and Cn-TPP were determined by Mueller-Hinton broth microdilution, as recommended by CLSI in the Methods for Dilution Antimicrobial Susceptibility Tests for Bacteria that Grow Aerobically, Approved Standard, 9th ed., CLSI document M07-A9, using in-house-prepared panels. The compounds were diluted in a 96-well microtiter plate to final concentrations ranging from 0.5 to 360 μM in a 250-µL aliquot of the bacterial suspension, followed by incubation at 37 °C or 30 °C for 18 h. […] The bacterial growth was observed visually alongside OD measurements. The experiments were carried out in triplicate.

For another test, the system named is Staphylococcus aureus. The test is described as follows: MIC determination, broth microdilution. The test is classed as cell-based.
Excerpt: as §1, §2, §3

The next test has as its system A549. Nature of the test: MTT assay growth inhibition. Format: cell-based, human. The note with it: for selectivity of action for A549 and noncancerous VA13 cell lines: A549 vs VA13; for GI50: Homo sapiens, A549, MTT, 72 h, read-out: 50% growth inhibition concentration (GI50). On the procedure: (§4) The cytotoxicity of the tested substances was tested using the MTT (3-(4,5-dimethylthiazol-2-yl)-2,5-diphenyltetrazolium bromide) assay, with some modifications, and 2500 cells per well for the MCF7, HEK293T, and A549 cell lines or 4000 cells per well for the VA-13 cell line were plated in 135 µL of DMEM-F12 media (Gibco, Waltham, MA, USA) in a 96-well plate and incubated in the 5% CO2 incubator for first 16 h, without treatment. Then, 15 µL of media-DMSO solutions of the tested substances was added to the cells (the final DMSO concentrations in the media were 1% or less) and treated cells for 72 h with 25 nM–50 µM (eight dilutions) of our substances (triplicate each), and serial DMSO dilutions and doxorubicin were used as controls. The MTT reagent (Paneco LLC, Moscow, Russia) was then added to cells to a final concentration of 0.5 g/L (10× stock solution in PBS was used) and incubated for 2.5 h at 37 °C in the incubator under an atmosphere of 5% CO2. The MTT solution was then discarded, and 140 µL of DMSO (PharmaMed LLC, Krasnodarsky Krai, Russia) was added. The plates were swayed on a shaker (60 rpm) to dissolve the formazan. The absorbance was measured using a microplate reader (VICTOR X5 Light Plate Reader, PerkinElmer, Waltham, MA, USA) at a wavelength of 565 nm (in order to measure formazan concentration). The results were used to construct a dose-response graph and to estimate the CC50 value.

The subject of test [1] is E. coli BW25113 ΔtolC pDualrep2 reporter strain. Nature of the test: pDualrep2 double fluorescent reporter assay on agar plate. The test is classed as cell-based. The following applies: compound spotted on agar lawn, overnight 37 °C. The text has this: Next, we tested the effects of CAM-C10-TPP and CAM-C14-TPP in bacterial cells using an E. coli ∆tolC-based reporter system, which is designed to screen inhibitors targeting either protein synthesis or DNA replication. In this reporter system, the gene of the far-red fluorescent protein, katushka2S, is inserted downstream of the genetically modified tryptophan attenuator, making it possible to express Katushka2S only upon exposure to ribosome-stalling compounds (Figure 2B, CHL and ERY, red pseudocolor rings).
Reporter strain […] [71] ΔtolC (BW25113) pDualrep2 was used, as previously described. The tested antibiotics, CAM-C10-TPP (10 mM, 1.5 μL), CAM-C14-TPP (10 mM, 1.5 μL), C10-TPP (10 mM, 1.5 μL), C14-TPP (10 mM, 1.5 μL), CAM (10 mM, 1.5 μL), CAM-Ac (10 mM, 1.5 μL), chloramphenicol (CHL, 2 mM, 1 μL), erythromycin (Ery, 7 mM, 1 μL), and levofloxacin (Lev, 70 nM, 1 μL), were applied to an agar plate that already contained a lawn of the reporter strain. After being incubated overnight at 37 °C, the plate was scanned by ChemiDoc (Bio-Rad) in the modes, “Cy3-blot” for RFP and “Cy5-blot” for Katushka2S.

Another test relates to VA13. The test is described as follows: MTT assay growth inhibition. Format: cell-based. The following applies: VA-13, 72 h, read-out: 50% growth inhibition concentration (GI50). On the procedure:
as §4

Test [2] relates to ribosome stalling on trpL mRNA in a cell-free translation system. The test is described as follows: toeprinting (primer extension inhibition) assay on trpL mRNA. The test is classed as biochemical. The note with it: trpL mRNA template, 30 μM compound. The source says:
To investigate the mechanism of action of CAM-C10-TPP and CAM-C14-TPP in the translation process, a primer extension inhibition assay (toeprinting) was used. This method allows for the unambiguous identification of drug-induced ribosome stalling sites along the mRNA, with single-nucleotide precision. This technique is also used to determine the context-specificity of antibiotic action. For this experiment, trpL mRNAs were chosen as the template, as in the pDualrep2 reporter system. […] Compared to the results obtained previously for CAM-C4-TPP using rst1 and rst2 mRNA templates, more unambiguous results were obtained using a trpL mRNA template. The main drug-induced ribosome stalling sites are different for CHL and CAM-Cn-TPP, and there are also CAM-Cn-TPP-specific stalling positions.
The toeprinting assay was carried out using trpL mRNA as a template, as described in [73], and the reactions were preincubated for 5 min with 30 μM of the tested compound.

The subject of another test is Mycobacterium smegmatis. The test is described as follows: MIC determination, broth microdilution. The test is classed as cell-based. The following applies: Mycolicibacterium smegmatis.
Excerpt: as §1, §3

The subject of the next test is Bacillus subtilis. The test is described as follows: MIC determination, broth microdilution. The test is classed as cell-based.
Excerpt: as §1, §3

Setting [3] is: Table 1, double-dilution method, read-out: MIC.

Converted amounts (≈) assume the structure as drawn. Read-outs that look alike come from different tables or passages of the source. Where only a bound is given, the exact number is not on record here.

Turning to `O=C(CCCCCCCCCC[P+](c1ccccc1)(c1ccccc1)c1ccccc1)N[C@H](CO)[C@H](O)c1ccc([N+](=O)[O-])cc1` [CAM-C10-TPP, (N-{[(1R,2R)-1,3-dihydroxy-1-(4-nitrophenyl)propan-2-yl]amino}-11-oxoundecyl)(triphenyl)phosphonium bromide], the MIC against Listeria monocytogenes is 6 µM; against Staphylococcus aureus, 5 µM; against Mycobacterium smegmatis, 2 µM; in the test on Bacillus subtilis, 2 µM. The “selectivity of action for A549 and noncancerous VA13 cell lines” value with A549 is reported as “approximately 4 times”. Besides, the GI50 turned out to be 0.7 ± 0.1 µM with A549 and 2.8 ± 0.5 µM with VA13. The “induction of reporters (Katushka2S: ribosome stalling; RFP: DNA damage)” value (“induction of reporters” for short) in test [1] is listed as “red pseudocolor rings are observed due to the expression of the fluorescent protein, Katushka2S (but not RFP)”. The “drug-induced ribosome stalling site” value in test [2] was “blocked the ribosome progression at Val6 (Figure 2D, red arrowhead) and slightly blocked it at Ile4”.

For `O=C(CCCCCCCCCC[P+](c1ccccc1)(c1ccccc1)c1ccccc1)NCCCC(=O)N[C@H](CO)[C@H](O)c1ccc([N+](=O)[O-])cc1` [CAM-C14-TPP, N-[(1R,2R)-1,3-dihydroxy-1-(4-nitrophenyl)propan-2-yl]-4-(triphenyl)phosphoniumundecanamidobutamide bromide], the MIC in the test on Listeria monocytogenes was 17 µM; in the test on Staphylococcus aureus, 12 µM; against Mycobacterium smegmatis, 8 µM; against Bacillus subtilis, 12 µM. Also, the “selectivity of action for A549 and noncancerous VA13 cell lines” value in the test with A549 is reported as around 2 times. Besides, the GI50 with A549 turned out to be 2.9 ± 0.4 µM; in the test on VA13, 5.2 ± 0.9 µM. Besides, the “induction of reporters” value in test [1] is on record as “red pseudocolor rings are observed due to the expression of the fluorescent protein, Katushka2S (but not RFP)”. In addition, the “drug-induced ribosome stalling site” value in test [2] was “blocked the ribosome progression at Val6 (Figure 2D, red arrowhead) and slightly blocked it at Ile4”.

For the compound `O=C(N[C@H](CO)[C@H](O)c1ccc([N+](=O)[O-])cc1)C(Cl)Cl` [CHL, chloramphenicol], the MIC in the test on Listeria monocytogenes (setting [3]) came out at 25 µM (≈ 8.08 µg/mL); in the test on Staphylococcus aureus (setting [3]), 60 µM (≈ 19.4 µg/mL); in the test on Mycobacterium smegmatis (setting [3]), 6 µM (≈ 1.94 µg/mL); in the test with Bacillus subtilis (setting [3]), 12 µM (≈ 3.88 µg/mL). The GI50 in the test on A549 and with VA13 was above 50 µM throughout. For the same compound, in test [1], the “induction of reporters” value is listed as “red pseudocolor rings are observed due to the expression of the fluorescent protein, Katushka2S (but not RFP)”. For the same compound, the “drug-induced ribosome stalling site” value in test [2] is given as “stalls ribosomes at the Ile4 codon”.

The record behind these values is paper PMC8145938, “Triphenilphosphonium Analogs of Chloramphenicol as Dual-Acting Antimicrobial and Antiproliferating Agents” (Antibiotics, 2021).
